Experimental data as given in patent publication US20240307396A1, “COMPOSITIONS AND METHODS FOR TREATING CELIAC DISEASE” (THE REGENTS OF THE UNIVERSITY OF CALIFORNIA, priority 2021, published 2024).
“Also recorded” adds a separate entry of the source.

How the values were obtained:
IL-15 = IL-15 (Homo sapiens, UniProt P40933); conditions: cited from earlier work
[1] = tested on: Type II refractory celiac disease; assay: Endoscopic and clinical response of the Type II RCD patient; type: in vivo, human; conditions: for Endoscopic finding (ulcerative jejunitis / duodenopathy): budesonide 3 months, infliximab 9 months, tofacitinib 10 mg twice daily, four months
Description: (§1) During the initial outpatient visit in the CD clinic they were hypotensive with anasarca, diagnosed with celiac crisis, and urgently sent for readmission. They were treated with 72 hours of intravenous solumedrol 20 mg every 12 hours and then transitioned to open-capsule protocol budesonide 3 mg three times a day.
(§2) They were therefore switched to experimental infliximab after a total of 5 months on budesonide.
(§3) The patient was now about 18 months out from diagnosis of Type II RCD, which is associated with about 50% risk of lymphoma in 5 years, so it was imperative to find an effective regimen. […] Discussion of associated adverse events, including thromboembolic ones, was conducted, and pre-treatment labs including lipid profile were done. […] This was the first-time the patient achieved such results in the 2 years since presenting with celiac crisis. […] Their tofacitinib dose will be reduced to 5 mg twice daily to reduce associated adverse events.
However, malabsorption, malignancy, morbidity and mortality are known complications in Type II RCD (Cellier et al. (2000); Ilus et al. (2014); Weiss (2021) Diagnosis and Management of Gluten-Associated Disorders: A clinical casebook. Springer). Currently, the best clinical practice in managing RCD is to advocate for experimental medication treatment in adjunct to a strict gluten-free diet (GFD). Yet the same guidelines acknowledge the absence of treatments with proven efficacy in Type II RCD (Rubio-Tapia et al. (2013) Am. J. Gastroenterol., 108(5):656-677; Al-Toma et al. (2019) United European Gastroenterol. J.: 7(5):583-613). The European guidelines discuss the potential use of AMG714 or JAK inhibitor after corticosteroids, immunomodulators, and chemotherapy in the most refractory of CD cases. […] Additional studies are needed, but the therapy disclosed herein may be utilized in uncomplicated CD or non-responsive CD (NRCD) in combination with a GFD, or even as a substitute to one.

[2] = tested on: Type II refractory celiac disease; assay: Trend of pertinent laboratory values in a Type II RCD patient across sequential treatments; type: in vivo, human; design: CRP: unit not given beside the values; conditions: for CRP / DGP IgA / TTG IgA: same patient, Budesonide 3 m, Infliximab 1 y, Cladribine 1.5 y, Tofacitinib 2 y
From the text: A person with a past medical history significant for Hashimoto's thyroiditis and positive celiac serology was initially seen for protein-losing enteropathy. Although they had previously been on a gluten-free diet (GFD) for 1 year after first being diagnosed with CD, they re-introduced gluten 3 years before pregnancy without symptoms. They stayed on gluten until one-month postpartum when they developed epigastric pain, nausea, diarrhea with 2-3 loose to watery stools daily, along with significant bilateral lower extremity edema.
At the time of initial hospital admission, they were five months postpartum with the above symptomatology. […] They were discharged to outpatient setting on a GFD and referred to a CD clinic for management.
as §1, §2, §3

[3] = tested on: Type II refractory celiac disease; assay: Small bowel biopsy histology (modified Marsh classification) and immunophenotype in the Type II RCD patient; type: in vivo, human; conditions: for Marsh lesions on biopsy: tofacitinib 10 mg twice daily, four months; for Pathology (Marsh lesion): same patient, Budesonide 3 m, Infliximab 1 y, Cladribine 1.5 y, Tofacitinib 2 y
From the text: CD can be characterized using the modified Marsh classification scheme. A subject having a Marsh 0 score would be characterized as either healthy or if previously diagnosed with CD, as “CD in remission”. A Marsh 1 score is non-specific, rarely seen in CD, unless already on a GFD during endoscopy, and may be observed in subjects having dermatitis herpetiformis (DH) or in family members of CD patients, but also with other conditions as infections and adverse response to medications. A Marsh 2 score is rare and is sometimes observed in DH and again in CD patients already on a GFD. Marsh 3 score is characteristic of the spectrum of changes observed in symptomatic CD patients.
as §1, §2, §3

[4] = budesonide 3 months, infliximab 9 months

Sequence of IL-15 (P40933 49-162): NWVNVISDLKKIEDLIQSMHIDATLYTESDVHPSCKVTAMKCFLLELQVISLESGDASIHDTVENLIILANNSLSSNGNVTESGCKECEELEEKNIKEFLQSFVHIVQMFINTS

| Compound | Results of AMG714 (IL-15) | Endoscopic finding (ulcerative jejunitis / duodenopathy) [1] | Symptoms ([1]; during tofacitinib therapy) | CD serologies ([2]; four months after start of tofacitinib 10 mg twice daily) | CRP [2] | DGP IgA [2] | TTG IgA [2] | Marsh lesions on biopsy [3, 4] | Duodenal bulb biopsy histology (H&E) ([3]; during tofacitinib therapy, FIG. 2D) | Pathology (Marsh lesion) [3] | T-cell aberrancy / CD8 expression in intraepithelial T-lymphocytes [3, 4] | Resolution of RCD ([1]; one dose of cladribine 10 mg IV) |
| --- | --- | --- | --- | --- | --- | --- | --- | --- | --- | --- | --- | --- |
| AMG714: anti-IL-15 mAb | positive yet statistically insignificant results |  |  |  |  |  |  |  |  |  |  |  |
| C[C@@H]1CCN(C(=O)CC#N)C[C@@H]1N(C)c1ncnc2[nH]ccc12 [Tofacitinib, tofacitinib] |  | reversed severe therapy-refractory duodenopathy; also recorded: improvement in their duodenopathy | ameliorated symptoms of CD; also recorded: feeling well with minimum symptoms | normalization of their CD serologies | <0.3 | 70 (H) | 5 | Marsh 1-2 | normal villous architecture with focal areas of crypt hyperplasia and an increase in intraepithelial lymphocytes | Marsh 1-2 |  |  |
| infliximab |  | resolution of their ulcerative jejunitis |  |  | <0.3 | 53.9 (H) | 33.1 (H) | Marsh 3A |  | Marsh 3A | unchanged T-cell aberrancy |  |
| CCCC1O[C@@H]2C[C@H]3[C@@H]4CCC5=CC(=O)C=C[C@]5(C)[C@H]4[C@@H](O)C[C@]3(C)[C@]2(C(=O)CO)O1 (stereo partly shown) [Budesonide, budesonide] |  |  |  |  | <0.3 | 186.9 | 152.3 |  |  |  |  |  |
| Nc1nc(Cl)nc2c1ncn2[C@H]1C[C@H](O)[C@@H](CO)O1 [Cladribine, cladribine] |  |  |  |  | <0.3 | 57.7 (H) | 44.3 (H) |  |  | Marsh 3A |  | without resolution of their RCD |
